Reference: patent US20220324835A1 (Nurix Therapeutics, Inc., priority 2018, published 2022)

How the values were obtained:
Cbl-b [1] = target: T1, Cbl-b (Homo sapiens, UniProt Q13191); test: Cbl-b inhibition assay (Cbl-b activity assay, FRET, Biological Example 1; 100 mM NaCl, 60 nM Src kinase); type: biochemical; settings: upper bound stated in text lists; read-out: IC50 values in the Cbl-b inhibition assay of Biological Example 1
Summary of the method: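 N-terminally biotinylated Avi-tagged Cbl-b was mixed with Src kinase, UbcH5B covalently conjugated to Bodipy-fluorescein ubiquitin, and streptavidin-terbium. Src phosphorylation lets Cbl-b bind UbcH5B-Ub, giving terbium-fluorescein FRET; inhibition is read as loss of FRET signal.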

T-cell [2] = test: IL-2 secretion from T-cells co-stimulated with anti-CD3 and anti-CD28 antibody (Biological Example 2); type: cell-based, human; settings: Homo sapiens, T-cell, fold change over baseline, primary human total T-cells, read-out: IL-2 secretion Anti-CD3/Anti-CD28 stimulation; for fold induction at 0.3 µM: 0.3 μM Cbl-b inhibitor; for fold induction at 1 µM: 1 μM Cbl-b inhibitor; for fold induction at 4 µM: 4 μM Cbl-b inhibitor
Summary of the method: (§1)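 No assay protocol given; T-cells stimulated with anti-CD3 alone or anti-CD3 plus anti-CD28, with or without Cbl-b inhibitor. Activation read as IL-2 secretion or CD25 surface staining, expressed as fold over baseline from uninhibited cells […].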

T-cell [3] = test: CD25 cell surface staining on T-cells co-stimulated with anti-CD3 and anti-CD28 antibody (Biological Example 2); type: cell-based, human; settings: Homo sapiens, T-cell, fold change over baseline, primary human total T-cells, read-out: CD25 staining Anti-CD3/Anti-CD28 stimulation; for fold induction at 0.3 µM: 0.3 μM Cbl-b inhibitor; for fold induction at 1 µM: 1 μM Cbl-b inhibitor; for fold induction at 4 µM: 4 μM Cbl-b inhibitor
Summary of the method: as §1

Cbl-b [4] = target: T1, Cbl-b; test: Cbl-b activity assay (Cbl-b inhibition assay), TR-FRET of Cbl-b interaction with UbcH5B-Ub; type: biochemical; settings: assay buffer with 100 mM NaCl, 60 nM Src kinase; read-out: Cbl-b activity IC50
Summary of the method: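 TR-FRET readout of Cbl-b binding to Bodipy-fluorescein N-terminally labeled Ub conjugated to UbcH5B C85K, measured with compound present. After compound incubation, 60 nM Src kinase with 1 mM ATP and 5 mM MgCl2 (final) was added for 1.5 h, then a further 1 h incubation; asterisked values used 50 mM NaCl buffer and 30 nM Src.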

Cbl-b (residues 36-427) = Cbl-b (residues 36-427) (Homo sapiens, UniProt Q13191); test: Cbl-b binding assay (SPR, Biacore T200); settings: 20° C., 1:1 binding model
Cbl-b (residues 36-427), sequence (Q13191 36-427): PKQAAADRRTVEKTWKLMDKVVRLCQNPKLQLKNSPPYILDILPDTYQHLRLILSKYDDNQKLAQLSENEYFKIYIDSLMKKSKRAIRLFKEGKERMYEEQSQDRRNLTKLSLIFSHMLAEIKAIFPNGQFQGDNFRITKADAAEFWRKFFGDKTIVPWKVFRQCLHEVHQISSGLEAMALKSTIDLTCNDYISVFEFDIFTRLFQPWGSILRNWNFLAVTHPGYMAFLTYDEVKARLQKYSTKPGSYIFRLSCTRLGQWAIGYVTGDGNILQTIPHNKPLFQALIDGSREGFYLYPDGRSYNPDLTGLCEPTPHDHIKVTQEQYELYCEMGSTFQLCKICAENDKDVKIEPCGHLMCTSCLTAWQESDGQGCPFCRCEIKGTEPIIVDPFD
Summary of the method: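 Affinities derived from global 1:1 steady-state or kinetic fits of double-referenced, solvent-corrected SPR data, 20 °C, NeutrAvidin-capture chip. Compound series (top 100 or 50 μM, 8–10 points) injected 50 s, 90–180 s dissociation. Asterisked values used 50 mM instead of 100 mM NaCl and 30 nM Src kinase.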

T1 sequence (Q13191 36-427): as above

| Compound | IC50 (Cbl-b [1]) [nM] | fold induction at 0.3 µM (T-cell [2]) | fold induction at 1 µM (T-cell [2]) | fold induction at 4 µM (T-cell [2]) | fold induction at 0.3 µM (T-cell [3]) | fold induction at 1 µM (T-cell [3]) | fold induction at 4 µM (T-cell [3]) | IC50 (Cbl-b [4]) [nM] | Kd (Cbl-b (residues 36-427)) [nM] |
| --- | --- | --- | --- | --- | --- | --- | --- | --- | --- |
| C[C@H](Cc1nncn1C)c1cccc(NC(=O)c2nc3c(C(F)(F)F)cccc3[nH]2)c1 [Compound 196, N-[3-[(1R)-1-methyl-2-(4-methyl-1,2,4-triazol-3-yl)ethyl]phenyl]-4-(trifluoromethyl)-1H-benzimidazole-2-carboxamide] | ≤ 100 | 2.51 to 5 | 5 to 7.5 | > 7.5 | 1.01 to 1.3 | 1.51 to 1.75 | > 1.76 | < 100 | 100 to 300 |
| C[C@H](Cc1nncn1C)c1cccc(NC(=O)c2ccnc(C3CC3)n2)c1 [Compound 199, (R)-2-cyclopropyl-N-(3-(1-(4-methyl-4H-1,2,4-triazol-3-yl)propan-2-yl)phenyl)pyrimidine-4-carboxamide] | ≤ 100 | 2.51 to 5 | 5 to 7.5 | > 7.5 | 1.01 to 1.3 | 1.31 to 1.5 | 1.51 to 1.75 | < 100 | 100 to 300 |
| C[C@H](Cc1nncn1C)c1cccc(NC(=O)c2ccc(CO)c(C3CC3)n2)c1 [Compound 203, 6-cyclopropyl-5-(hydroxymethyl)-N-[3-[(2R)-1-(4-methyl-4H-1,2,4-triazol-3-yl)propan-2-yl]phenyl]pyridine-2-carboxamide] | ≤ 100 | > 7.5 | > 7.5 | > 7.5 | 1.31 to 1.5 | 1.51 to 1.75 | 1.51 to 1.75 | < 100 | < 100 |
| CC(=O)N1CCN(c2ccc3cnc(C(=O)Nc4cccc([C@H](C)Cc5nncn5C)c4)cc3c2)CC1 [Compound 211, (R)-6-(4-acetylpiperazin-1-yl)-N-(3-(1-(4-methyl-4H-1,2,4-triazol-3-yl)propan-2-yl)phenyl)isoquinoline-3-carboxamide 2,2,2-trifluoroacetate] | ≤ 100 | 2.51 to 5 | 5 to 7.5 | > 7.5 | 1.01 to 1.3 | 1.01 to 1.3 | 1.51 to 1.75 | < 100 | 100 to 300 |
| C[C@H](Cc1nncn1C)c1cccc(NC(=O)c2cc(C(=O)N3CC[C@H](O)C3)cc(C(F)(F)F)n2)c1 [Compound 220, 4-((S)-3-hydroxypyrrolidine-1-carbonyl)-N-(3-((R)-1-(4-methyl-4H-1,2,4-triazol-3-yl)propan-2-yl)phenyl)-6-(trifluoromethyl)picolinamide] | ≤ 100 | 2.51 to 5 | > 7.5 | > 7.5 | 1.31 to 1.5 | 1.51 to 1.75 | > 1.76 | < 100 | < 100 |
| C[C@H](Cc1nncn1C)c1cccc(N2Cc3c(cccc3C(F)(F)F)C2=O)c1 [Compound 255a, (R)-2-(3-(1-(4-methyl-4H-1,2,4-triazol-3-yl)propan-2-yl)phenyl)-4-(trifluoromethyl)isoindolin-1-one] | ≤ 100 | 1.01 to 2.5 | 2.51 to 5 | 5 to 7.5 | 1.31 to 1.5 | 1.51 to 1.75 | > 1.76 | < 100 | 100 to 300 |
| C[C@H](Cc1nncn1C)c1cccc(N2Cc3c(cc(C(=O)N4CC[C@H](O)C4)cc3C(F)(F)F)C2=O)c1 [Compound 274, 6-((S)-3-hydroxypyrrolidine-1-carbonyl)-2-(3-((R)-1-(4-methyl-4H-1,2,4-triazol-3-yl)propan-2-yl)phenyl)-4-(trifluoromethyl)isoindolin-1-one] | ≤ 100 | 1.01 to 2.5 | 2.51 to 5 | > 7.5 | 1.01 to 1.3 | 1.01 to 1.3 | 1.31 to 1.5 | < 100 | < 100 |
| C[C@H](Cc1nncn1C)c1cccc(N2Cc3c(cc(C(=O)N4C[C@@H](O)C[C@H]4C)cc3C(F)(F)F)C2=O)c1 [Compound 275, 6-((2R,4S)-4-hydroxy-2-methylpyrrolidine-1-carbonyl)-2-(3-((R)-1-(4-methyl-4H-1,2,4-triazol-3-yl)propan-2-yl)phenyl)-4-(trifluoromethyl)isoindolin-1-one] | ≤ 100 | 2.51 to 5 | 5 to 7.5 | > 7.5 | 1.31 to 1.5 | 1.51 to 1.75 | > 1.76 | < 100 | < 100 |
| C[C@H](Cc1nncn1C)c1cccc(N2Cc3c(cc(C(=O)N4CC(O)C4)cc3C(F)(F)F)C2=O)c1 [Compound 276, (R)-6-(3-hydroxyazetidine-1-carbonyl)-2-(3-(1-(4-methyl-4H-1,2,4-triazol-3-yl)propan-2-yl)phenyl)-4-(trifluoromethyl)isoindolin-1-one] | ≤ 100 | 1.01 to 2.5 | 2.51 to 5 | > 7.5 | 1.01 to 1.3 | 1.01 to 1.3 | 1.31 to 1.5 | < 100 | 301 to 1000 |
| C[C@H](Cc1nncn1C)c1cccc(N2Cc3c(cc(C(=O)N4CC[C@H](O)C4)cc3C3CC3)C2=O)c1 [Compound 277, 4-cyclopropyl-6-((S)-3-hydroxypyrrolidine-1-carbonyl)-2-(3-((R)-1-(4-methyl-4H-1,2,4-triazol-3-yl)propan-2-yl)phenyl)isoindolin-1-one] | ≤ 100 | 1.01 to 2.5 | 2.51 to 5 | 2.51 to 5 | 1.01 to 1.3 | 1.01 to 1.3 | 1.31 to 1.5 | < 100 | 100 to 300 |
| Cn1cnnc1CC1(c2cccc(N3Cc4c(cccc4C(F)(F)F)C3=O)c2)CC1 [Compound 299, 2-(3-(1-((4-methyl-4H-1,2,4-triazol-3-yl)methyl)cyclopropyl)phenyl)-4-(trifluoromethyl)isoindolin-1-one] | ≤ 100 | 2.51 to 5 | 2.51 to 5 | 5 to 7.5 | < 1 | 1.01 to 1.3 | 1.01 to 1.3 | < 100 | 1000 to 3000 |
| Cn1cnnc1CC(C)(C)c1cccc(N2Cc3c(cccc3C(F)(F)F)C2=O)c1 [Compound 300, 2-(3-(2-methyl-1-(4-methyl-4H-1,2,4-triazol-3-yl)propan-2-yl)phenyl)-4-(trifluoromethyl)isoindolin-1-one] | ≤ 100 | 1.01 to 2.5 | 2.51 to 5 | > 7.5 | 1.01 to 1.3 | 1.01 to 1.3 | 1.51 to 1.75 | < 100 | 100 to 300 |
